The values that follow come from PMC7094781 (Journal of Molecular Biology, 2007).

In the assay the target is SARS 3CL^pro (Severe acute respiratory syndrome coronavirus, UniProt P0C6U8).

As for “acetyl-leucyl-alanyl-alanyl-ketomethyl(cycloglutamine)-phthalhydrazide [inhibitor 2]”, the “bonding mode to Cys145, soaking” value was “the episulfide and the deacylating (major) mixed forms”.
